Laboratory results as given in publication PMC4552634, “A New Set of Chemical Starting Points with Plasmodium falciparum Transmission-Blocking Potential for Antimalarial Drug Discovery” (PLoS ONE, 2015).
Where two headings read alike, the source gives them in different places.

Key:
[1] = tested on: P. falciparum asexual stages; conditions: TCAMS data, cited from earlier work
[2] = Cytotoxicity in HepG2 cells (intracellular ATP, ATPlite, 48 h); type: cell-based, human; conditions: human, HepG2 cells, IC50 per ratio column head, unit inferred; for IC50 at 48 h: read-out: Cytotoxicity in HepG2
HepG2 cells = assay: as above; type: cell-based, human; conditions: for Ratio IC50 HepG2/IC50 P. falciparum: IC50 HepG2 divided by IC50 P. falciparum gametocytes; for IC50: HepG2 cells, IC50 per ratio column head, unit inferred
[3] = tested on: P. falciparum stage V gametocytes; assay: Gametocytocidal ATP bioluminescence assay (single point 5 μM and 1 μM, dose-response); type: cell-based, Plasmodium falciparum; conditions: for Ratio IC50 HepG2/IC50 P. falciparum: IC50 HepG2 divided by IC50 P. falciparum gametocytes; for % Inhibition: 5 μM single concentration, 48 h, decrease of ATP level (S1 Table)
Procedure: Purified stage IV-V gametocytes were obtained as previously described [10]. Single point ATP bioluminescence assay and dose–response of positive hits was determined in accordance with the previously published protocol [10].

[4] = tested on: P. falciparum stage V gametocytes; assay: microbe, parasite or virus in culture; design: BacTiter-Glo ATP luminescence viability of purified stage V gametocytes in 384-well plates, per cent inhibition versus DMSO; conditions: Plasmodium falciparum, 48 h, read-out: % Inhibition
[5] = asexual stages, read-out: IC50 asexual
[6] = Plasmodium falciparum, P. falciparum gametocytes, average, read-out: IC50 Pf Gametocytes average, IC50 (µM) average
[7] = sexual stages (gametocytes), dose-response, read-out: IC50 sexual
[8] = Plasmodium falciparum, read-out: IC50 Pf Gametocytes average, IC50 (µM) average
[9] = P. falciparum gametocytes, average, read-out: IC50 Pf Gametocytes average, IC50 (µM) average

| SMILES | IC50 [1, 5] | Ratio IC50 HepG2/IC50 P. falciparum [3] | IC50 [3, 6] | IC50 at 48 h [2] | inhibition at 5 µM [4] | further results |
| --- | --- | --- | --- | --- | --- | --- |
| CN1c2ccc([N+](=O)[O-])cc2C(C)(C)C12C=Cc1cc(Br)cc([N+](=O)[O-])c1O2 (stereo not shown) [TCMDC-124178] | 0.785 µM | >23 | 1.09 µM |  |  | IC50 [2]: > 25000 nM; Ratio IC50 HepG2/IC50 P. falciparum (HepG2 cells): >23; IC50 [3, 7]: 1.09 µM |
| Cl.c1ccc2c(NCCCCCCCCCNc3c4ccccc4nc4ccccc34)c3ccccc3nc2c1 [TCMDC-124286] | 0.298 µM | 4 |  |  |  | IC50 [2]: 6100 nM; IC50 [3, 8]: 1.5 µM; IC50 [3, 7]: 1.5 µM |
| Oc1c(C(Nc2nc3ccccc3s2)c2ccc(OC(F)F)cc2)ccc2cccnc12 (stereo not shown) [TCMDC-124379] | 0.571 µM | 55 | 0.44 µM | 24100 nM |  | Ratio IC50 HepG2/IC50 P. falciparum (HepG2 cells): 55 |
| Cc1sc2ncnc(Sc3nnc(N)s3)c2c1C [TCMDC-124542] | 0.399 µM | >83 | 0.3 µM | > 25000 nM |  | IC50 ([1]; P. falciparum asexual stages, read-out: IC50 (µM) Pf asexual stages): 0.4 µM; Ratio IC50 HepG2/IC50 P. falciparum (HepG2 cells): >83 |
| S=C(NN=Cc1ccccn1)Nc1ccc(Cl)c(Cl)c1 [TCMDC-125522] | 0.768 µM | 130 | 0.07 µM | 9100 nM |  |  |
| S=C(NN=Cc1ccccn1)NC1CC2C=CC1C2 (stereo not shown) [TCMDC-125752] | 0.721 µM | 6 | 0.11 µM | 700 nM |  | IC50 [3, 7]: 0.112 µM |
| COc1cc2nc(NCCCN3CCCCC3)nc(NCc3ccccc3)c2cc1OC [TCMDC-132012] | 0.998 µM | 30 | 0.3 µM | 8940 nM |  | IC50 [3, 7]: 0.297 µM |
| COc1ccc(CCNc2nc(NCc3ccccc3)c3cc(OC)c(OC)cc3n2)cc1OC [TCMDC-132017] | 0.326 µM | 0.818 | 5.6 µM | 4580 nM |  |  |
| FC(F)(F)c1ccc2[nH]c(-c3ccc(-c4ccc(CNCCN5CCNCC5)cc4)s3)nc2c1 [TCMDC-132862] | 0.91 µM | 5.37 |  | 6900 nM |  | IC50 [3, 8]: 1.29 µM; IC50 ([3]; Plasmodium falciparum, read-out: IC50 sexual): 1.28 µM; %_Inh ([3]; gametocytes, primary screen at 5 μM (S10 Table, MCSI analogs)): 105.547% |
| CC(C)c1ccc(CN2CCC(CNC(=O)c3cc(-c4cccc(F)c4)cs3)C2)cc1 (stereo not shown) [TCMDC-134437] | 1.66 µM | 12 | 0.45 µM | 5300 nM |  | IC50 [3, 7]: 0.455 µM |
| CC(C)(C)c1ccc(CN2CCC(CNC(=O)c3cc(-c4ccccc4C(F)(F)F)cs3)C2)cc1 (stereo not shown) [TCMDC-134441] | 1.24 µM | 21 | 0.31 µM | 6400 nM |  | IC50 [3, 7]: 0.305 µM |
| CC(C)(C)c1ccc(CN2CCC(CNC(=O)c3cc(-c4cccc(C(F)(F)F)c4)cs3)C2)cc1 (stereo not shown) [TCMDC-134442] | 1.03 µM | 12 | 0.42 µM | 4900 nM |  |  |
| CC(C)(C)c1ccc(CN2CCC(CNC(=O)c3cc(-c4ccccc4F)cs3)C2)cc1 (stereo not shown) [TCMDC-134443] | 0.564 µM | 22 | 0.34 µM | 7400 nM |  |  |
| CC(C)(C)c1ccc(CN2CCC(CNC(=O)c3cc(-c4ccccc4Cl)cs3)C2)cc1 (stereo not shown) [TCMDC-134445] | 0.856 µM | 12 | 0.69 µM | 8300 nM |  |  |
| COc1cccc(-c2csc(C(=O)NCC3CCN(Cc4ccc(C(C)(C)C)cc4)C3)c2)c1 (stereo not shown) [TCMDC-134447] | 1.18 µM | 41 | 0.23 µM | 9500 nM |  |  |
| Cl.c1ccc2c(Nc3ccc(Cc4ccc(Nc5c6ccccc6nc6ccccc56)cc4)cc3)c3ccccc3nc2c1 [TCMDC-137354] | 0.162 µM | 2 | 2.3 µM | 4490 nM |  |  |
| N=C(NCCCCC1CCCCC1)c1cccc(C(=N)NCCCCC2CCCCC2)n1 [TCMDC-137452] | 0.395 µM | 7 | 0.22 µM | 1600 nM |  |  |
| CC(CNC(=N)c1cccc(C(=N)NCC(C)Oc2cccc(C3CCCCC3)c2)n1)Oc1cccc(C2CCCCC2)c1.Cl (stereo not shown) [TCMDC-137455] | 0.917 µM | 15 | 0.24 µM | 3530 nM |  |  |
| COc1ccc2nc3cc(Cl)ccc3c(NCCCCN3CCNCC3)c2c1 [TCMDC-137578] | 0.183 µM | 7.58 | 0.66 µM | 5000 nM |  |  |
| COc1ccc2c(c1)CC(C)(C)NC2CCCCCCCCC1NC(C)(C)Cc2cc(OC)ccc21 (stereo not shown) [TCMDC-137935] | 1.3 µM | 7 | 0.79 µM | 5320 nM |  |  |
| c1ccc(CN2CCN(CCCCNc3c4ccccc4nc4ccccc34)CC2)cc1 [TCMDC-138009] | 0.117 µM | 12 | 0.79 µM | 9920 nM |  | IC50 [3, 7]: 0.795 µM |
| CCCCCCCCN1CCN(CCCCCCNc2c3ccccc3nc3ccccc23)CC1 [TCMDC-138015] | 0.162 µM | 12 | 0.25 µM | 3100 nM |  |  |
| COc1cc2nc(NCc3cccc(CNC(=O)c4ccc(-c5ccc(C(C)=O)cc5)cc4)c3)nc(N)c2cc1OC.O=C(O)C(F)(F)F [TCMDC-138177] | 0.118 µM | 5 | 2 µM | 9500 nM |  | IC50 [3, 7]: 2 µM |
| C=C[C@H]1CN(CCCCCCC)CC[C@H]1CCNc1ccnc2ccc(OC)cc12 [TCMDC-139204] | 0.062 µM | 3 | 1.08 µM | 3400 nM |  |  |

| SMILES | IC50 [1, 5] | Ratio IC50 HepG2/IC50 P. falciparum [3] | IC50 [3, 6] | IC50 at 48 h [2] | inhibition at 5 µM [4] | further results |
| --- | --- | --- | --- | --- | --- | --- |
| COc1cc(NCCCNCc2cn(Cc3cc(Br)cc(Br)c3)c3ccccc23)nc2ccccc12 [TCMDC-140677] | 0.185 µM | 10 | 0.59 µM | 6130 nM |  |  |
| COc1ccc2c(NN=CC=Cc3ccccc3)cc(C)nc2c1 [TCMDC-142096] |  |  |  |  | 34% | % Inhibition ([3]; P. falciparum gametocytes): 34% |
| Fc1ccc2c(NN=Cc3ccc(Cl)cc3)ccnc2c1 [TCMDC-142097] |  |  |  |  | 61.1% | % Inhibition ([3]; P. falciparum gametocytes): 61% |
| O=[N+]([O-])c1cccc(/C=N/Nc2ccnc3cc(F)ccc23)c1 [TCMDC-142098] |  |  |  |  | 42.1% | % Inhibition ([3]; P. falciparum gametocytes): 42% |
| Clc1ccc(C=NNc2ccnc3ccccc23)cc1 [TCMDC-142099] |  |  |  |  | -69.1% | % Inhibition ([3]; P. falciparum gametocytes): -69% |
| Fc1ccc2c(NN=Cc3ccccc3)ccnc2c1 [TCMDC-142100] |  |  |  |  | 16.3% | % Inhibition ([3]; P. falciparum gametocytes): 16% |
| Nc1c(I)cc(C(=O)Nc2ccc3nc4c(c(N)c3c2)CCCC4)cc1I [TCMDC-142289] | 0.143 µM | 20 |  |  | 108% | IC50 (HepG2 cells): 8030 nM; IC50 [3, 9]: 0.41 µM |
| Nc1cc(/C=C/c2ccc([N+](=O)[O-])s2)nc2ccccc12 [TCMDC-142296] | 0.76 µM | 13 |  |  | 111% | IC50 (HepG2 cells): 7600 nM; IC50 [3, 9]: 0.6 µM; IC50 [3, 7]: 0.595 µM |
| CCCNc1nc(Nc2ccccc2C)nc2ccccc12 [TCMDC-142326] |  |  |  |  | 78.9% |  |
| Cc1ccccc1Nc1nc(NCCCO)c2ccccc2n1 [TCMDC-142327] |  |  |  |  | 41.9% |  |
| CCCCCNc1nc(Nc2ccccc2C)nc2ccccc12 [TCMDC-142328] |  |  |  |  | 26.7% |  |
| CCCC(=O)c1cnc2c(Oc3cc(Cl)ncn3)cccc2c1Nc1ccccc1C [TCMDC-142329] |  |  |  |  | -26% |  |
| COc1ccccc1CNc1nc(Nc2ccccc2C)nc2ccccc12 [TCMDC-142330] |  |  |  |  | 93.6% |  |
| Cc1cc(F)ccc1Nc1nc(N(C)c2ccccc2)c2cccc(O)c2n1 [TCMDC-142331] |  |  |  |  | -52.7% |  |
| Cc1cc(F)ccc1Nc1nc(N(C)c2ccccc2)c2cc(OCCCN(C)C)ccc2n1 [TCMDC-142332] |  |  |  |  | 57.7% |  |
| Cc1cc(F)ccc1Nc1nc(N(C)c2ccccc2)c2cc(OCCN(C)C)ccc2n1 [TCMDC-142333] |  |  |  |  | 31.3% |  |
| Cc1cc(F)ccc1Nc1nc(N(C)c2ccccc2)c2cccc(OCCO)c2n1 [TCMDC-142334] |  |  |  |  | 32.7% |  |
| NC(=NCc1ccccc1)Nc1nc(-c2ccc(OCCCn3ccnc3)cc2)cs1 [TCMDC-142335] |  |  |  |  | 8.33% |  |
| CCCCOP(=O)(OCCCC)C(=Cc1ccc(O)c2ccccc12)P(=O)(OCCCC)OCCCC [TCMDC-142336] |  |  |  |  | -25.7% |  |
| Cc1ccccc1Nc1cc(Nc2ccccc2C)c2ccccc2n1 [TCMDC-142337] |  |  |  |  | 98.8% |  |
| CCCC(=O)c1cnc2c(OCCCc3c[nH]cn3)cccc2c1Nc1c(C)cccc1C [TCMDC-142338] |  |  |  |  | 28.2% |  |
| CN(C)CCCOc1ccc(-c2csc(NC(N)=NCc3ccccc3)n2)cc1 [TCMDC-142339] |  |  |  |  | 35.3% |  |
| N[C@@H](Cc1cc(I)c(Oc2ccc(O)c(C(=O)O)c2)c(I)c1)C(=O)O [TCMDC-142341] |  |  |  |  | 5.53% |  |
| CCCCCCc1cc(Oc2c(I)cc(C[C@H](N)C(=O)O)cc2I)ccc1O [TCMDC-142342] |  |  |  |  | 5.11% |  |
